{"source": "patent US5747524A", "about": "“Cannabinoid receptor antagonists” (Eli Lilly and Company, priority 1996, dated 1998)", "key": {"[1]": {"test_system": "CB-1 receptor (CHO cells)", "test": "Assay of cAMP accumulation in CHO cells expressing the cannabinoid receptor (forskolin, anandamide)", "type": "cell-based", "method": "Assay of CAMP accumulation.\nCHO cells were preincubated in growth media with forskolin (10^-6 M) with or without anandamide for 4 hours Cyclic AMP accumulation was measured over 5 minutes after exchanging the growth media with serum free media containing forskolin (10^-6 M) and anandamide, with or without antagonists as indicated. Data are the mean ±S.E. of three experiments performed in triplicate. […] . […] ;"}, "[2]": {"test_system": "anandamide-induced sedation in C57BL/6J mice", "test": "Open Field Assay of mouse behavior (Digiscan Automated Open Field), sedation caused by anandamide", "type": "in vivo", "conditions": "for Effect on animal's movements (in words): Horizontal Exploratory Activity and Total Distance Exploratory Behavior", "method": "In Vivo Effects of Anandamide Antagonists\nThe Open Field Assay evaluates the motion (both horizonal and vertical) of a mouse when placed in a large, open area. […] The mouse is placed in the center of a large area of a device which measues the number of vertical and horizontal movements of the mouse (Digiscan Automated Open Field). Each test session is of 5 minute duration. At the end of this time period, the mouse is removed from the scanner and the recorded data are automatically analyzed and satisically evaluated. Further details are given in Crawley, J., J. Neurosci., 12(9), p. 3380-3391 (1992)."}, "human CB-1 receptor": {"molecular_target": "human CB-1 receptor (Homo sapiens, UniProt P21554)", "sequence (P21554 whole entry)": "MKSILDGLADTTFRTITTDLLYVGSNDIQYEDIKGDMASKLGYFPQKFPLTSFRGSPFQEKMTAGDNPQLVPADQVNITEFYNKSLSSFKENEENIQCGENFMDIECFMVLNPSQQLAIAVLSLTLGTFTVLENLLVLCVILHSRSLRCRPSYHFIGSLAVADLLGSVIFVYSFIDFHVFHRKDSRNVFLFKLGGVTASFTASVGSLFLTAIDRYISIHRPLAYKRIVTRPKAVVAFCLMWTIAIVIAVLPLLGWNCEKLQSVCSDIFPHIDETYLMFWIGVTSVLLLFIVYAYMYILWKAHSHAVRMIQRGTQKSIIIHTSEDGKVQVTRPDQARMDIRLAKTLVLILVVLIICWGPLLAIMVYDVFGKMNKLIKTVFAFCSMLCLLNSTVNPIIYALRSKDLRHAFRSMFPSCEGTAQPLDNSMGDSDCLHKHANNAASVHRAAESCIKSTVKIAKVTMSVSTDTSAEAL", "test": "Radioligand binding assay, competition with [^3 H]CP55,940 on Ltk cell membranes"}, "[3]": {"test_system": "N-type calcium channel via the CB-1 receptor (N18 cells)", "test": "Effect on N-type calcium channel currents, whole-cell voltage clamp in N18 neuroblastoma cells", "type": "cell-based", "method": "Effect on N-type Calcium Channel Currents\nSpecifically, the compounds of formula I open the N-type calcium channels, which are closed by either anandamide or the cannabinoids (see: Mackie, K. and Hille, B., Proc. Natl. Acad. Sci., 89, p.3825-3829 (1992)).\nN18 (neuroblastoma cell line) cells (passages 32-41) were grown on glass coverslip fragments in DMEM plus 5% (fetal bovine serum)(FBS, using standard cell culture techniques. Six to 14 days before recording, cells were \"differentiated\" by changing the medium to DMEM plus 0.5% FBS plus 2% dimethylsulfoxide. In PTX (Pertussis Toxin) experiments, differentiated cells were grown for an additional 16-20 hours in medium containing 500 ng/ml PTX. Control cells were treated identically, except that […].\nCurrents were recorded using the whole-cell voltage-clamp technique. Pipettes were pulled from hematocrit glass (VWR) and fire polished. The pipette solution contained (in mM) 100 CsCl, 10 EGTA, 5 MgCl2, 40 HEPES, 3 Na2 ATP, and 0.2 GTP, pH 7.30 with CsOH. For recording, a coverslip containing cells was transferred to the recording chamber (200 μl) and constantly perfused at a rate of 1-2 ml/min with an external solution containing (in mM) 160 NaCl, 5 CaCl2, 4 KCl, 1 MgCl2, 10 HEPES, and 8 glucose, pH 7.35 with NaOH. Tetrodotoxin (200 nM) was added to block voltage-gated sodium currents, and bovine serum albumin (3 μM) was present in all recording solutions to decrease adsorption of cannabinoids. Subsequently the cannabinoid agonist WIN 55,212 and the compounds of this invention were added. ICa was measured near the end of a 25-msec depolarizing pulse to 0 mV and was defined as that component of the current sensitive to 100 μM CdCl2. Solution reservoirs were selected by means of a series of solenoid valves, and solution changes were accomplished in <1 min. In all experiments the cells were held under voltage clamp at a holding potential of -65 mV. Voltage protocols were generated and data were digitized, recorded, and analyzed using BASIC-FASTLAB (Indec Systems, Capitola, Calif.). Currents were sampled at 4 kHz and junction potentials are uncorrected. To control for potential response variations with passage number and duration of differentiation, experimental and control measurements were alternated whenever possible. Where appropriate, data are expressed as mean ±standard error."}, "[4]": {"test_system": "N-type calcium channel via the CB-1 receptor (N18 cells)", "conditions": "Felder, et al.; cited from earlier work"}, "[5]": {"conditions": "Vehicle + anandamide, 2 mg/kg i.p., 5 min session"}}}
{"smiles": "CCCCC/C=C\\C/C=C\\C/C=C\\C/C=C\\CCCC(=O)NCCO", "note": "[Anandamide, N-ethanolamine amide of arachidonic acid, reference compound]", "values": [{"measurement": "effect on cAMP (in words)", "setting": "[1]", "value": "inhibits the increase of cAMP induced by the forskolin"}, {"measurement": "cAMP accumulation", "setting": "[1]; FSK + ANM, no antagonist", "value": 5, "unit": "pM/mL"}, {"measurement": "cAMP accumulation", "setting": "[1]; anandamide (1 μM) alone", "value": "< 5", "unit": "pM/mL"}, {"measurement": "Effect on animal's movements (in words)", "setting": "[2]", "value": "severe depression and sedation of the animal's movements"}, {"measurement": "Horizontal Exploratory Behavior, Digiscan Horizontal Activity/5 min.", "setting": "[2]; [5]", "value": 200}, {"measurement": "Total Distance Exploratory Behavior, Digiscan Total Distance/5 min", "setting": "[2]; [5]", "value": 50}]}
{"smiles": "COc1ccc2c(C(=O)c3ccc(C#N)cc3)c(-c3ccc(C)cc3)oc2c1", "note": "[Example 3, [6-Methoxy-2-(4-methylphenyl)benzo[b]furan-3-yl][4-cyanophenyl]methanone]", "values": [{"measurement": "Ki", "setting": "human CB-1 receptor", "value": 134, "unit": "nM"}]}
{"smiles": "COc1ccc(-c2oc3cc(OC)ccc3c2C(=O)c2ccc(O)cc2)cc1", "note": "[Example 4, [6-Methoxy-2-(4-methoxyphenyl)-benzo[b]furan-3-yl]-3-(4-hydroxyphenyl)-methanone]", "values": [{"measurement": "Ki", "setting": "human CB-1 receptor", "value": 4120, "unit": "nM"}]}
{"smiles": "COc1ccc(-c2oc3cc(OC)ccc3c2C(=O)c2ccc(OS(=O)(=O)C(F)(F)F)cc2)cc1", "note": "[Example 5, [6-Methoxy-2-(4-methoxyphenyl)-benzo[b]furan-3-yl]-3-(phenyl-4-triflate)-methanone]", "values": [{"measurement": "Ki", "setting": "human CB-1 receptor", "value": 490, "unit": "nM"}]}
{"smiles": "COc1ccc(-c2oc3cc(OC)ccc3c2C(=O)c2ccc(C#N)cc2)cc1", "note": "[Example 6, [6-Methoxy-2-(4-methoxyphenyl)-benzo[b]furan-3-yl]-3-(4-cyanophenyl)-methanone]", "values": [{"measurement": "Effect on N-type calcium channel (in words)", "setting": "[3]", "value": "opening the N-type calcium channel via the CB-1 receptor"}, {"measurement": "Cell current", "setting": "[3]; Cmpd.6 (1 μM) alone", "value": -150, "unit": "pA"}, {"measurement": "Cell current", "setting": "[3]; Oxo-M + Cmpd.6 (specificity control)", "value": -60, "unit": "pA"}, {"measurement": "Cell current", "setting": "[3]; WIN + Cmpd.6", "value": -150, "unit": "pA"}, {"measurement": "effect on cAMP (in words)", "setting": "[1]", "value": "[…]"}, {"measurement": "IC50", "setting": "[1]; CHO cells, forskolin + anandamide, read-out: IC50, inhibition of the biological action of anandamide (negates decrease in cAMP)", "value": "[…]"}, {"measurement": "cAMP accumulation", "setting": "[1]; Cmpd.6 (100 μM) alone", "value": "[…]"}, {"measurement": "cAMP accumulation", "setting": "[1]; FSK + ANM + Cmpd.6 (10 nM)", "value": "[…]"}, {"measurement": "cAMP accumulation", "setting": "[1]; FSK + ANM + Cmpd.6 (100 nM)", "value": "[…]"}, {"measurement": "cAMP accumulation", "setting": "[1]; FSK + ANM + Cmpd.6 (1 μM)", "value": "[…]"}, {"measurement": "cAMP accumulation", "setting": "[1]; FSK + ANM + Cmpd.6 (10 μM)", "value": "[…]"}, {"measurement": "cAMP accumulation", "setting": "[1]; FSK + ANM + Cmpd.6 (100 μM)", "value": "[…]"}, {"measurement": "cAMP accumulation", "setting": "[1]; FSK + Cmpd.6 (100 μM), no anandamide", "value": "[…]"}, {"measurement": "Total Distance Exploratory Behavior, Digiscan Total Distance/5 min", "setting": "[2]; Cmpd.6 20 mg/kg i.p., 28 min before anandamide 2 mg/kg i.p., *p < 0.01", "value": 300}, {"measurement": "Horizontal Exploratory Behavior, Digiscan Horizontal Activity/5 min.", "setting": "[2]; Cmpd.6 20 mg/kg i.p., 28 min before anandamide 2 mg/kg i.p., *p < .05", "value": 900}, {"measurement": "Effect on animal's movements (in words)", "setting": "[2]", "value": "reversed"}]}
{"smiles": "COc1ccc(C(=O)c2c(-c3ccc(OC)cc3)sc3cc(OC)ccc23)cc1", "note": "[Example 7, [6-methoxy-2-(4-methoxyphenyl)benzo[b]thien-3-yl][4-methoxyphenyl]methanone]", "values": [{"measurement": "Ki", "setting": "human CB-1 receptor", "value": 3600, "unit": "nM"}]}
{"smiles": "COc1ccc(-c2sc3cc(OC)ccc3c2C(=O)c2ccc(O)cc2)cc1", "note": "[Example 8, [6-methoxy-2-(4-methoxyphenyl)benzo[b]thien-3-yl][4-hydroxyphenyl]methanone]", "values": [{"measurement": "Ki", "setting": "human CB-1 receptor", "value": 950, "unit": "nM"}]}
{"smiles": "CCCOc1ccc(C(=O)c2c(-c3ccc(OC)cc3)sc3cc(OC)ccc23)cc1", "note": "[Example 12, [6-Methoxy-2-(4-methoxyphenyl)benzo[b]thien-3-yl] [4-n-propyloxyphenyl]methanone]", "values": [{"measurement": "Ki", "setting": "human CB-1 receptor", "value": 1540, "unit": "nM"}]}
{"smiles": "CCCCOc1ccc(C(=O)c2c(-c3ccc(OC)cc3)sc3cc(OC)ccc23)cc1", "note": "[Example 13, [6-Methoxy-2-(4-methoxyphenyl)benzo[b]thien-3-yl][4-n-butyloxyphenyl]methanone]", "values": [{"measurement": "Ki", "setting": "human CB-1 receptor", "value": 430, "unit": "nM"}]}
{"smiles": "COc1ccc(-c2oc3cc(OC)ccc3c2C(O)c2ccc(OC)cc2)cc1", "note": "(stereo not shown) [Example 15, [6-Methoxy-2-(4-methoxyphenyl)benzo[b]furan-3-yl] [4-methoxyphenyl]methanol]", "values": [{"measurement": "Ki", "setting": "human CB-1 receptor", "value": 25800, "unit": "nM"}]}
{"smiles": "COc1ccc(Cc2c(-c3ccc(OC)cc3)oc3cc(OC)ccc23)cc1", "note": "[Example 16, [6-Methoxy-2-(4-methoxyphenyl)benzo[b]furan-3-yl][4-methoxyphenyl]methane]", "values": [{"measurement": "Ki", "setting": "human CB-1 receptor", "value": 5300, "unit": "nM"}]}
{"smiles": "C=C[C@@]1(C)CC(=O)[C@]2(O)[C@@]3(C)[C@@H](O)CCC(C)(C)[C@@H]3[C@H](O)[C@H](OC(C)=O)[C@@]2(C)O1", "note": "[Forskolin, reference compound]", "values": [{"measurement": "effect on cAMP (in words)", "setting": "[1]", "value": "raises the level of cAMP above the basal level"}, {"measurement": "cAMP accumulation", "setting": "[1]; forskolin (FSK) alone, 10^-6 M", "value": 30, "unit": "pM/mL"}]}
{"smiles": "Cc1c(C(=O)c2cccc3ccccc23)c2cccc3c2n1[C@H](CN1CCOCC1)CO3", "note": "[WIN 55,212, reference compound]", "values": [{"measurement": "Effect on N-type calcium channel (in words)", "setting": "[3]", "value": "inhibits the N-type calcium channel via the CB-1 receptor"}, {"measurement": "Cell current", "setting": "[3]; WIN 55,212 (100 nM) alone, Table 3", "value": -60, "unit": "pA"}, {"measurement": "Current after WIN 55,212", "setting": "[3]; agonist inhibits N-type calcium channel", "value": -65, "unit": "pA"}, {"measurement": "Action compared with anandamide (in words)", "setting": "[4]", "value": "acts the same as anandamide"}]}
